# Source: patent publication EP0162545A2, “Enhanced bioconversion processes” (BETZ EUROPE, INC., priority 1984, dated 1985)
# Assays:
# Klebsiella pneumoniae = assay: microbe, parasite or virus in culture; type: cell-based
# Experimental: The first series of experiments involved the measurement of the amount of C02 evolved from aerobically growing cultures of the representative organism Klebsiella in the presence and absence of uncoupling agents. The known uncouplers 2, 4 dinitrophenol (DNP) and carbonyl cyanide m-chlorophenyl hydrazone (CCCP) were tested along with bis (tricholoromethyl) sulfone (TCMS) and beta-bromo-beta-nitrostyrene (BNS). It can be seen from the data that CCCP caused large increases in C02 evolution over the untreated controls at all concentrations used, with the largest increase (29%) at 5 µg/mL (24.4 uM). […] Bacterial counts also reflected the lack of uncoupling activity. […] Largest increase in C02 blowoff came at 50 ppm (32%). BNS gave a mixed pattern as opposed to those of DNP and CCCP. […] Even at 10 µg/mL, the bacterial count was reduced ~ 50% while still giving greater C02 blowoff than control cultures.
# The procedure utilized to perform the first series of experiments was as follows: • Sealed vials containing 8 mL of minimal salts medium (Composition: K2HPO4-39, KH2PO4-lg, MgSO4-0.2g, (NN4)2SO4^-1g, D-glucose-5g (optional) in 1 liter. Autoclave and adjust pH to 6.8) lacking any carbon source were each injected with 1 mL of a suspension of Klebsiella pneumoniae. (Klebsiella was grown overnight, shaken at 37°C, in minimal salts medium containing glucose to a heavy cell suspension. The cells were centrifuged at 10,000 g and resuspended to a turbidity of 150 Klett units [Klett-Summerson photometer, #42 blue filter) in minimal salts medium [MSM], no glucose. These cells were again centrifuged, and resuspended in MSM at 1/10 the volume used previously. This 10X cell suspension was used as the standard inoculum for the vials.) The vials were- simultaneously injected with 1 mL of a 1 µ Ci/mL solution of ^14C-U-D glucose and the appropriate concentration of material to be tested. The compounds tested were fed at concentrations of […]. Controls received no test material and all vials were shaken during the course of the experiments at 37°C. Vials were read for C02 blowoff at the times indicated on the appropriate Tables. Standard bacterial counts were done on each vial after the end of each experimental series. [formula] [formula] [formula] [formula]
# Klebsiella = assay: microbe, parasite or virus in culture; type: cell-based
# Experimental: These patterns were the results of Klebsiella cultures having been grown on glucose (^14C-label). In nature, and in waste treatment facilities, many organic carbon compounds, both simple and complex, would be available for degradation. The known uncouplers and BNS were tested for their ability to increase C02 evolution from cultures exposed to the common substrates lactate, glycine, glycerol, and a denatured protein mixture. […] This was expected in the case of glycine but it was thought that a more complex protein might be degraded and portions used for some energyproduction. It was hoped that these compounds might be a more representative group (more abundant in waste treatment) than simple sugars for determining the extent of activity of BNS. […] Lactate, a common intermediate in microbial metabolism, and a compound which would normally be used as an oxidizable substrate for running the cytochrome chain, gave a more representative response. BNS treated cultures gave increased C02 blowoff (an increase as high as 130% at 5 µg/mL) as did both known uncouplers. […] When glycerol was used as the labeled substrate, BNS treated cultures gave increased C02 at concentrations up to 5 µg/mL.
# The procedure used for determining the CO2 evolution was similar to the procedure described previously. Cells having been grown overnight in MSM and glucose were centrifuged and resuspended in MSM + glucose (cold) and used as inoculum. No other cold carbon source (unlabeled) was added. ^14C-labeled substrates (lactate, glycerol, etc.) obtained from New England Nuclear were used and supplied the radiolabeled carbon for the detection of ^14CO2. BNS was utilized in concentrations of 0.5 - 10 µg/mL. Fixed concentrations of 5 µg/mL CCCP and DNP were included for comparative purposes. The following data were obtained in these experiments.
compound,measurement,setting,value
"O=[N+]([O-])C(Br)=Cc1ccccc1 [BNS, beta-bromo-beta-nitrostyrene]",concentrations at which toxic properties become evident,Klebsiella pneumoniae,> 5.0 µg/mL
same,activation at 1 µg/mL,"Klebsiella pneumoniae; Klebsiella pneumoniae, 1.0 µ/mL, 14C-glucose, read-out: largest increase in C02 blowoff",13%
same,activation at 5 µg/mL,"Klebsiella; Klebsiella, 14C-lactate as labeled substrate, 5 µg/mL, read-out: increase in C02 blowoff",130%
same,concentrations giving increased C02,Klebsiella; glycerol as the labeled substrate,up to 5 µg/mL
same,effect on CO2 evolution,Klebsiella; glycine as the labeled substrate,either no effect or a toxic effect
